Active and inactive are the calls of the source. The calls are words filed in the database; no cut-off is given here.
Legend:
[1] = Resistance index, ratio of IC50 for antiproliferative activity against human paclitaxel-resistant A2780/TAX cells to IC50 for antiproliferative activity against human A2780 cells; type: functional
[2] = Selectivity ratio of IC50 for cytotoxicity against HLF cells assessed as reduction in cell viability to IC50 for cytotoxicity against human A549 cells assessed as reduction in cell viability; type: toxicity, cell-based; settings: HLF cells versus A549 cells
MGC-803 = assay: Antiproliferative activity against human MGC-803 cells assessed as inhibition of cell proliferation incubated for 2 hrs by CCK-8 assay; type: functional, cell-based; settings: DDE = dose-dependent effect
HeLa = assay: Antiproliferative activity against human HeLa cells assessed as inhibition of cell proliferation incubated for 2 hrs by CCK-8 assay; type: functional, cell-based; settings: DDE = dose-dependent effect
A549 [3] = assay: Cell cycle arrest in human A549 cells assessed as increase in accumulation in G2/M phase at 5 to 20 nM by PI staining based flow cytometry analysis; type: functional; settings: dose 5-20 nM, time 24-48 hrs, TDE = time-dependent effect
[4] = Half life in ICR mouse at 10 mg/kg, po single administration measured for 24 hrs post treatment by LC-MS/MS analysis; type: ADME, organism-based; settings: in vivo
Tubulin (Homo sapiens) [5] = biological target: T1, Tubulin (Homo sapiens) (UniProt P68371+Q9H4B7+P0DPH7+P68366+Q13509+Q71U36+P04350+Q3ZCM7+P07437+P68363+Q9BQE3+Q6PEY2+Q13885+Q9BVA1+Q9BUF5); assay: Induction of microtubule disruption in human A549 cells assessed as shrunken spindle shaped microtubule structure at 5 to 20 uM incubated for 12 hrs by immunofluorescence based laser scanning confocal microscopic analysis; type: cell-based; settings: dose 5-20 µM
SMMC-7721 = assay: Antiproliferative activity against human SMMC-7721 cells assessed as inhibition of cell proliferation incubated for 2 hrs by CCK-8 assay; type: functional, cell-based; settings: DDE = dose-dependent effect
A2780 [6] = assay: Antiproliferative activity against human A2780 cells assessed as inhibition of cell proliferation incubated for 2 hrs by CCK-8 assay; type: functional, cell-based; settings: DDE = dose-dependent effect
A549 [7] = assay: Induction of ferroptosis in human A549 cells assessed as induction of lipid […] accumulation at 5 to 20 nM incubated for 24 hrs by C11-BODIPY-581/591 staining based flow cytometry analysis; type: functional, cell-based; settings: dose 5-20 nM
A549 [8] = assay: Cell cycle arrest in human A549 cells assessed as increase in accumulation in G2/M phase incubated for 24 to 48 hrs by PI staining based flow cytometry analysis; type: functional; settings: dose 5-20 nM, time 24-48 hrs, DDE = dose-dependent effect
A549 [9] = assay: Resistance index, ratio of IC50 for antiproliferative activity against human adriamycin-resistant A549/ADR cells to IC50 for antiproliferative activity against human A549 cells; type: functional
[10] = Acute oral toxicity in rat assessed as death at 550 mg/kg measured over 8 hours daily for 14 days; type: organism-based; settings: in vivo, 336 h, time 14 day
[11] = Toxicity in human A549 cells xenografted in athymic nude BALB/c nude mouse assessed as morphological changes in spleen at 10 mg/kg, ip measured after 30 days by H and E staining based histological analysis; type: organism-based; settings: in vivo, 720 h, time 30 day
LoVo = assay: Antiproliferative activity against human LoVo cells assessed as inhibition of cell proliferation incubated for 2 hrs by CCK-8 assay; type: functional, cell-based; settings: DDE = dose-dependent effect
HCT-8 [12] = assay: Antiproliferative activity against human vincristine-resistant HCT-8/VCR cells assessed as cell viability incubated for 48 hrs by MTT assay; type: functional, cell-based; settings: HCT-8, 48 h
A549 [13] = assay: Induction of ferroptosis in human A549 cells assessed as rupture of plasma membrane incubated for 24 hrs by CCK-8 assay; type: functional, cell-based
[14] = Toxicity in human A549 cells xenografted in athymic nude BALB/c nude mouse assessed as morphological changes in lung at 10 mg/kg, ip measured after 30 days by H and E staining based histological analysis; type: organism-based; settings: in vivo, 720 h, time 30 day
A549 [15] = assay: Induction of apoptosis in human A549 cells assessed as early apoptotic cells at 200 nM after 24 hrs by annexin V-FITC/PI staining based flow cytometry analysis relative to control; type: functional
PC-3 = assay: Antiproliferative activity against human PC-3 cells assessed as inhibition of cell proliferation incubated for 2 hrs by CCK-8 assay; type: functional, cell-based; settings: DDE = dose-dependent effect
A549 [16] = assay: Induction of ferroptosis in human A549 cells assessed as cell swelling incubated for 24 hrs by CCK-8 assay; type: functional, cell-based
HCT-8 [17] = assay: Antiproliferative activity against human HCT-8 cells assessed as inhibition of cell proliferation incubated for 2 hrs by CCK-8 assay; type: functional, cell-based; settings: DDE = dose-dependent effect
Tubulin (Homo sapiens) [18] = biological target: T1, Tubulin (Homo sapiens); assay: Induction of microtubule disruption in human A549 cells assessed as abnormal uncondensed cytoplasm at 5 to 20 uM incubated for 12 hrs by immunofluorescence based laser scanning confocal microscopic analysis; type: cell-based; settings: dose 5-20 µM
A549 [19] = assay: Antiproliferative activity against human A549 cells assessed as cell viability incubated for 48 hrs by MTT assay; type: functional, cell-based; settings: A549, 48 h
[20] = MRT in ICR mouse at 1 mg/kg, iv single administration measured for 24 hrs post treatment by LC-MS/MS analysis; type: ADME, organism-based; settings: in vivo
Tubulin (Homo sapiens) [21] = biological target: T1, Tubulin (Homo sapiens); assay: Inhibition of [3H]colchicine binding to tubulin (unknown origin) at 0.3725 uM by competitive binding assay relative to control; type: protein-complex assay
A549 [22] = assay: Induction of ferroptosis in human A549 cells assessed as accumulation of superoxide anions incubated for 24 hrs by DCFH-DA staining based fluorescence microscopy; type: functional, cell-based; settings: dose 5-10 nM, DDE = dose-dependent effect
[23] = Selectivity ratio of IC50 for cytotoxicity against HUVEC cells assessed as reduction in cell viability to IC50 for cytotoxicity against human A549 cells assessed as reduction in cell viability; type: toxicity, cell-based; settings: HUVEC cells versus A549 cells
A549 [24] = assay: Cytotoxicity against human A549 cells assessed as reduction in cell viability; type: functional, cell-based
MCF7 = assay: Antiproliferative activity against human MCF7 cells assessed as inhibition of cell proliferation incubated for 2 hrs by CCK-8 assay; type: functional, cell-based; settings: DDE = dose-dependent effect
HCT-8 [25] = assay: Antiproliferative activity against human HCT-8 cells assessed as cell viability incubated for 48 hrs by MTT assay; type: functional, cell-based; settings: HCT-8, 48 h
[26] = AUC (0 to infinity) in ICR mouse at 10 mg/kg, po single administration measured for 24 hrs post treatment by LC-MS/MS analysis; type: ADME, organism-based; design: time 24 hrs, dose 10 mg/kg, route po; settings: in vivo
A2780 [27] = assay: Antiproliferative activity against human A2780 cells assessed as cell viability incubated for 48 hrs by MTT assay; type: functional, cell-based; settings: A2780, 48 h
[28] = Toxicity in athymic nude BALB/c mouse assessed as body weight loss at 10 mg/kg, ip measured for 30 days; type: organism-based; settings: in vivo, 720 h, time 30 day
[29] = Clearance in ICR mouse at 1 mg/kg, iv single administration measured for 24 hrs post treatment by LC-MS/MS analysis; type: ADME, organism-based; settings: in vivo
[30] = Tmax in ICR mouse at 1 mg/kg, iv single administration measured for 24 hrs post treatment by LC-MS/MS analysis; type: ADME, organism-based; settings: in vivo
[31] = Toxicity in human A549 cells xenografted in athymic nude BALB/c nude mouse assessed as morphological changes in kidney at 10 mg/kg, ip measured after 30 days by H and E staining based histological analysis; type: organism-based; settings: in vivo, 720 h, time 30 day
[32] = Acute oral toxicity in rat assessed as survival at 17.5 to 175 mg/kg measured over 8 hours daily for 14 days; type: organism-based; settings: in vivo, 336 h, dose 17.5-175 mg/kg, time 14 day

With C=C(c1cc(OC)c(OC)c(OC)c1)c1ccc(OC)c(O)c1NC(=O)CO the “Ratio IC50” value [1] was 2, the selectivity ratio [2] was 135 and the Activity (MGC-803) was “Dde”. For the same molecule, the Activity (HeLa) was “Dde”, the Activity (A549 [3]) was “Tde” and the half-life [4] was 127 min. The Activity (Tubulin (Homo sapiens) [5]) was “Active”, the Activity (SMMC-7721) was “Dde” and the Activity (A2780 [6]) was “Dde”. For the same molecule, the Activity (A549 [7]) was “Active”, the Activity (A549 [8]) was “Dde” and the “Ratio IC50” value (A549 [9]) was 2. The Activity [10] was “Toxic”, the Activity [11] was “Non-Toxic” and the Activity (LoVo) was “Dde”. The IC50 (HCT-8 [12]) was 70 nM, the Activity (A549 [13]) was “Active” and the Activity [14] was “Non-Toxic”. For the same molecule, the Activity (A549 [15]) was 50.36%, the Activity (PC-3) was “Dde” and the Activity (A549 [16]) was “Active”. For the same molecule, the Activity (HCT-8 [17]) was “Dde”, the Activity (Tubulin (Homo sapiens) [18]) was “Active” and the IC50 (A549 [19]) was 10 nM. For the same molecule, the MRT [20] was 40.8 min, the inhibition (Tubulin (Homo sapiens) [21]) was 4.07% and the Activity (A549 [22]) was “Dde”. For the same molecule, the selectivity ratio [23] was 4, the IC50 (A549 [24]) was 10 nM and the Activity (MCF7) was “Dde”. The IC50 (HCT-8 [25]) was 40 nM, the AUC [26] was 2463.76 h/ng/mL and the IC50 (A2780 [27]) was 20 nM. The Activity [28] was “Non-Toxic”, the clearance [29] was 47.6 mL/min/kg and the Tmax [30] was 4.8 min. The Activity [31] was “Non-Toxic” and the Activity [32] was “Non-Toxic”.
